The text below walks through data of patent US12612424B2, “HPK1 inhibitors and uses thereof” (Regor Pharmaceuticals, Inc., priority 2019, dated 2026).

Where two headings read alike, the source gives them in different places. Bounds are passed on as bounds.

One assay has as its target T1, JAK3 (Homo sapiens, UniProt P52333).
T1 construct: purchased Thermo fisher PV3855
The assay can be described thus: JAK3 biochemical assay (ADP-GLO Kinase Assay). Particulars: for JAKs/HPK1 IC50 Ratio, B*: first testing facility. The method in brief: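 Human JAK3 (0.78 ng) with 0.2 μg/μL Poly(E4Y1) and 4 μM ATP in 40 mM Tris pH 7.5, 20 mM MgCl2, 0.1 mg/ml BSA, 50 μM DTT, 1% DMSO; 60 min at 25 °C. ADP formed read by ADP-Glo luminescence. 10-dose 3-fold series from 10 μM; IC50 by three-parameter logistic fit.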
Background: ADP-Glo first removes unused ATP, then detects ADP through luciferase.

The next assay deals with HPK1 (Homo sapiens, UniProt Q92918). The assay can be described thus: HPK1 biochemical assay (ADP-GLO Kinase Assay). The method in brief:
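HPK1 (0.6 ng/μL final) activity was followed with MBP substrate and 10 μM ATP in Tris pH 7.5/MgCl2/BSA/DTT buffer, measured by ADP-Glo luminescence. Compounds were tested as 3-fold dilutions from 10 μM. IC50 came from a three-parameter logistic fit, with inhibition normalised to high/low controls.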

Setting [1] is: B*: testing performed in a first testing facility, read-out: JAK3 IC50 (nM) Relative, B*.
Setting [2] is: ratio of JAK3 IC50 to HPK1 IC50.
Where [3] appears, read: B*: testing performed in a first testing facility, read-out: HPK1 IC50 (nM) Relative, B*.

The IC50 is the concentration needed to halve the response being measured.

Sequence of HPK1 (Q92918 whole entry): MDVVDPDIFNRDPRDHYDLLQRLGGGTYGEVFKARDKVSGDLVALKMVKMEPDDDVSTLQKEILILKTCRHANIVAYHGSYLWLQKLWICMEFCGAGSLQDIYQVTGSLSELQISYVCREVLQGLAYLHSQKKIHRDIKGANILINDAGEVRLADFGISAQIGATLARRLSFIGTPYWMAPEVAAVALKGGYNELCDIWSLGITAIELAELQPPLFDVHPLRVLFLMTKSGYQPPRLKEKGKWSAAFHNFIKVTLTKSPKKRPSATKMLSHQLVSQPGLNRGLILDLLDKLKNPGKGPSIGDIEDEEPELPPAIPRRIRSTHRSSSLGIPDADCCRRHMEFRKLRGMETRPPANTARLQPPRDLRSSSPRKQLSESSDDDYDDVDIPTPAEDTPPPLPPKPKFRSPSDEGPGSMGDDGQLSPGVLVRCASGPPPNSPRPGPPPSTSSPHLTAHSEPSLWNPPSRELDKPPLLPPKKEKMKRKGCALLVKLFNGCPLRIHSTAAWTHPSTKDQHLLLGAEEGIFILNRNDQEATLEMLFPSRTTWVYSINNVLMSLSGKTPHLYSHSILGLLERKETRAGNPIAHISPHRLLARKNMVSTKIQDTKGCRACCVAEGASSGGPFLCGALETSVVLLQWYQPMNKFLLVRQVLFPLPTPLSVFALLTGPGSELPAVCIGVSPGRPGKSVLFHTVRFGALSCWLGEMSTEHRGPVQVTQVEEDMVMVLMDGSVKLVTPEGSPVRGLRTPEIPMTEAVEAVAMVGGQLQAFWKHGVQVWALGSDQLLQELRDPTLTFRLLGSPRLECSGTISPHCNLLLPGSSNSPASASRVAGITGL
T1 sequence (P52333 781-1124 limits assumed): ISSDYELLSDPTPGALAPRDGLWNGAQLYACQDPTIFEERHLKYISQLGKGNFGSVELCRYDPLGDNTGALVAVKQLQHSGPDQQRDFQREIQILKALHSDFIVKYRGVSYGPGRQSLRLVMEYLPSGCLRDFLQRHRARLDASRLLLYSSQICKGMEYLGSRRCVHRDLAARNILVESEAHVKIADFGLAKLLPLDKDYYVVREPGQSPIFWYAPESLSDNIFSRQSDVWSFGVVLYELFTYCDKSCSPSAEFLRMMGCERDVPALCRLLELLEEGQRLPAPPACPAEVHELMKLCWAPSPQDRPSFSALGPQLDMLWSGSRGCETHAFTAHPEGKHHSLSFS

In the case of `COc1cc2c(cc1Nc1ncc(Cl)c(N3CCOc4ccccc43)n1)CN(C)CC2` [Example 7, N-(5-chloro-4-(2,3-dihydro-4H-benzo[b][1,4]oxazin-4-yl)pyrimidin-2-yl)-6-methoxy-2-methyl-1,2,3,4-tetrahydroisoquinolin-7-amine], the half-inhibitory concentration (IC50) on JAK3 (setting [1]) was greater than 1000 nM; at HPK1 (setting [3]), no more than 100 nM. For the same molecule, on JAK3 (setting [2]), the “JAKs/HPK1 IC50 Ratio, B*” value is listed as greater than 118.
As for `COc1cc2c(cc1Nc1ncc3ccn(-c4cccnc4C)c3n1)CN(C)CC2` [Example 41, 6-Methoxy-2-methyl-N-(7-(2-methylpyridin-3-yl)-7H-pyrrolo[2,3-d]pyrimidin-2-yl)-1,2,3,4-tetrahydroisoquinolin-7-amine], the IC50 is 100 to 500 nM at JAK3 (setting [1]) and no more than 100 nM on HPK1 (setting [3]). The “JAKs/HPK1 IC50 Ratio, B*” value on JAK3 (setting [2]) was found to be 30.
Take `CCc1c[nH]c2ncc(-c3ccc(CN(C)C)c(P(C)(C)=O)c3)cc12` [Example 65, (2-((Dimethylamino)methyl)-5-(3-ethyl-1H-pyrrolo[2,3-b]pyridin-5-yl)phenyl)dimethylphosphine oxide]: the IC50 at JAK3 (setting [1]) was greater than 1000 nM; at HPK1 (setting [3]) it was 500 to 1000 nM. In addition, the “JAKs/HPK1 IC50 Ratio, B*” value at JAK3 (setting [2]) is reported as greater than 10.
`CCc1c[nH]c2ncc(-c3ccc(F)c(P(C)(C)=O)c3)cc12` [Example 51, (5-(3-Ethyl-1H-pyrrolo[2,3-b]pyridin-5-yl)-2-fluorophenyl)dimethylphosphine oxide]: the half-inhibitory concentration (IC50) on JAK3 (setting [1]) is greater than 1000 nM; at HPK1 (setting [3]), no more than 100 nM. Besides, the “JAKs/HPK1 IC50 Ratio, B*” value at JAK3 (setting [2]) turned out to be 51.
`CCc1c[nH]c2ncc(-c3cc(N)cc(P(C)(C)=O)c3)cc12` [Example 57, (3-Amino-5-(3-ethyl-1H-pyrrolo[2,3-b]pyridin-5-yl)phenyl)dimethylphosphine oxide]: the figures for the 50% inhibitory concentration (IC50) at JAK3 (setting [1]) and on HPK1 (setting [3]) were 500 to 1000 nM and no more than 100 nM, respectively. In addition, the “JAKs/HPK1 IC50 Ratio, B*” value on JAK3 (setting [2]) worked out at 22.
For the molecule `COc1cc2c(cc1Nc1ncc3ncn(-c4ccccc4C(=O)N(C)C)c3n1)CN(C)CC2` [Example 44, 2-(2-((6-Methoxy-2-methyl-1,2,3,4-tetrahydroisoquinolin-7-yl)amino)-9H-purin-9-yl)-N,N-dimethylbenzamide], the 50% inhibitory concentration (IC50) at JAK3 (N*: testing performed in a second testing facility, read-out: JAK3 IC50 (nM) Relative, N*) was greater than 1000 nM; on HPK1 (setting [3]), greater than 1000 nM; at HPK1 (N*: testing performed in a second testing facility, read-out: HPK1 IC50 (nM) Relative, N*), greater than 1000 nM. Further, on JAK3 (ratio of JAK3 IC50 to HPK1 IC50, second testing facility), the “JAKs/HPK1 IC50 Ratio, N*” value is on record as greater than 10.
For `CCOC(=O)Cc1cn(-c2nc(Nc3cc4c(cc3OC)CCN(C)C4)ncc2Cl)c2ccccc12` [Example 132], the IC50 on JAK3 (setting [1]) was greater than 1000 nM; on HPK1 (setting [3]) it was no more than 100 nM. At JAK3 (setting [2]), the “JAKs/HPK1 IC50 Ratio, B*” value is greater than 426.
Take `COc1cc2c(cc1Nc1ncc(Cl)c(N3CCc4cc(Br)ccc43)n1)CN(C)CC2` [Example 85, N-(4-(5-bromoindolin-1-yl)-5-chloropyrimidin-2-yl)-6-methoxy-2-methyl-1,2,3,4-tetrahydroisoquinolin-7-amine]: the IC50 is greater than 1000 nM on JAK3 (setting [1]) and no more than 100 nM at HPK1 (setting [3]). Also, the “JAKs/HPK1 IC50 Ratio, B*” value at JAK3 (setting [2]) was 178.
In the case of `CCc1c[nH]c2ncc(-c3ccc(C(N)=O)c(P(C)(C)=O)c3)cc12` [Example 67, 2-(Dimethylphosphoryl)-4-(3-ethyl-1H-pyrrolo[2,3-b]pyridin-5-yl)benzamide], the values for the concentration for half-maximal inhibition (IC50) at JAK3 (setting [1]) and at HPK1 (setting [3]) were greater than 1000 nM and 100 to 500 nM, respectively. On JAK3 (setting [2]), the “JAKs/HPK1 IC50 Ratio, B*” value is 10.
The matching figures for `CCC(CC)COC(=O)Cc1cn(-c2nc(Nc3cc4c(cc3OC)CCN(C)C4)ncc2Cl)c2ccccc12` [Example 131, 2-Ethylbutyl 2-(1-(5-chloro-2-((6-methoxy-2-methyl-1,2,3,4-tetrahydroisoquinolin-7-yl)amino)pyrimidin-4-yl)-1H-indol-3-yl)acetate]: greater than 1000 nM, 100 to 500 nM and greater than 82.
For `COc1cc2c(cc1Nc1ncc(Cl)c(N3CC(C(=O)O)c4ccccc43)n1)CN(C)CC2` (single isomer, unassigned) [Example 95], the IC50 at JAK3 (setting [1]) was greater than 1000 nM; at HPK1 (setting [3]), no more than 100 nM. For the same molecule, the “JAKs/HPK1 IC50 Ratio, B*” value on JAK3 (setting [2]) worked out at 150.
In the case of `CCc1c[nH]c2ncc(-c3ccc(NC4COC4)c(P(C)(C)=O)c3)cc12` [Example 76, (5-(3-Ethyl-1H-pyrrolo[2,3-b]pyridin-5-yl)-2-(oxetan-3-ylamino)phenyl)dimethylphosphine oxide], the values for the IC50 on JAK3 (setting [1]) and at HPK1 (setting [3]) were greater than 1000 nM and 500 to 1000 nM, respectively. In addition, the “JAKs/HPK1 IC50 Ratio, B*” value at JAK3 (setting [2]) stood at 4.
Regarding `CCc1c[nH]c2ncc(-c3ccc(N4CCCC4=O)c(P(C)(C)=O)c3)cc12` [Example 66, 1-(2-(Dimethylphosphoryl)-4-(3-ethyl-1H-pyrrolo[2,3-b]pyridin-5-yl)phenyl)pyrrolidin-2-one], the half-maximal inhibitory concentration (IC50) on JAK3 (setting [1]) was greater than 1000 nM; on HPK1 (setting [3]), 100 to 500 nM. Moreover, the “JAKs/HPK1 IC50 Ratio, B*” value at JAK3 (setting [2]) is listed as 3.
`COc1cc2c(cc1Nc1ncc(Cl)c(N3CC(C)(C(=O)O)c4ccccc43)n1)CNCC2` (stereo not shown) [Example 127, 1-(5-Chloro-2-((6-methoxy-1,2,3,4-tetrahydroisoquinolin-7-yl)amino)pyrimidin-4-yl)-3-methylindoline-3-carboxylic acid]: the IC50 at JAK3 (setting [1]) and on HPK1 (setting [3]) was no more than 100 nM each time. In addition, the “JAKs/HPK1 IC50 Ratio, B*” value on JAK3 (setting [2]) worked out at 4.
On to `COc1cc2c(cc1Nc1ncc3ccc(=O)n(-c4ccccc4)c3n1)CN(C)CC2` [Example 171, 2-((6-Methoxy-2-methyl-1,2,3,4-tetrahydroisoquinolin-7-yl)amino)-8-phenylpyrido[2,3-d]pyrimidin-7(8H)-one], for which the 50% inhibitory concentration (IC50) on JAK3 (setting [1]) was greater than 1000 nM; at HPK1 (setting [3]), no more than 100 nM. For the same molecule, the “JAKs/HPK1 IC50 Ratio, B*” value at JAK3 (setting [2]) amounted to 121.
The corresponding values for `COc1cc2c(cc1Nc1ncc(Cl)c(N3CC(CO)(C(=O)O)c4ccccc43)n1)CN(C)CC2` (stereo not shown) [Example 124] are no more than 100 nM, no more than 100 nM and 20.
In the case of `CCc1c[nH]c2ncc(-c3ccc(CF)c(P(C)(C)=O)c3)cc12` [Example 74, (5-(3-Ethyl-1H-pyrrolo[2,3-b]pyridin-5-yl)-2-(fluoromethyl)phenyl)dimethylphosphine oxide], the half-maximal inhibitory concentration (IC50) at JAK3 (setting [1]) was greater than 1000 nM; on HPK1 (setting [3]), 100 to 500 nM. In addition, the “JAKs/HPK1 IC50 Ratio, B*” value at JAK3 (setting [2]) is 19.
Turning to `CC(C)Oc1cc2c(cc1Nc1ncc(Cl)c(N3CC(C(=O)O)c4ccccc43)n1)CN(C)CC2` (stereo not shown) [Example 111, 1-(5-Chloro-2-((6-isopropoxy-2-methyl-1,2,3,4-tetrahydroisoquinolin-7-yl)amino)pyrimidin-4-yl)indoline-3-carboxylic acid], the concentration for half-maximal inhibition (IC50) on JAK3 (setting [1]) was greater than 1000 nM; on HPK1 (setting [3]), no more than 100 nM. In addition, on JAK3 (setting [2]), the “JAKs/HPK1 IC50 Ratio, B*” value was greater than 236.
The matching figures for `COC(=O)c1cn(-c2nc(Nc3cc4c(cc3OC)CCN(C)C4)ncc2Cl)c2ccccc12` [Example 114]: greater than 1000 nM, no more than 100 nM and greater than 118.
The matching figures for `CCc1c[nH]c2ncc(-c3ccc(C)c(P(C)(C)=O)n3)cc12` [Example 64, (6-(3-Ethyl-1H-pyrrolo[2,3-b]pyridin-5-yl)-3-methylpyridin-2-yl)dimethylphosphine oxide]: greater than 1000 nM, no more than 100 nM and 44.
